Publication PMC7217877, “N-AS-triggered SPMs are direct regulators of microglia in a model of Alzheimer’s disease” (Nature Communications, 2020)
Values joined by “and” are separate entries in the source; they are usually repeats but may differ in a detail not shown here. Equal entries are not always repeated.

Assays:
astrocyte = assay: western blotting for ac-S565 and total COX2 in primary cells; type: cell-based, C57BL/6 mice; details: Ab 10mM, replicates
Method: (§1) To confirm the generation and roles of N-AS in neurons, cells from E18 C57BL/6 mice were prepared as previously described. Cortices were dissected and then dissociated followed by incubation in papain (Worthington) at 37 °C for 15 min. Neurons were plated on poly-L-lysine-coated coverslips with neuronal culture medium, serum-free Neurobasal medium (Gibco) containing 2% B27 supplements (Gibco), 1 mM Glutamax supplement (Gibco), and 100 U ml^−1 streptomycin/ 100 U ml^−1 penicillin (Gibco) at 37 °C in a humidified atmosphere of 5% CO2. Aβ 1–42 (10 μM, 24 h, Invitrogen, 03112) was exposed to neurons and the cells were analyzed for the generation and roles of N-AS. Primary astrocyte cultures were prepared from C57BL/6 mice as described previously. In brief, after removal of the meninges, postnatal day 7 (P7) mouse brain tissues were minced and incubated in a rocking water bath at 37 °C for 30 min in the presence of 0.25% trypsin-EDTA (Sigma-Aldrich). […] The human microglia treated with Aβ 1–42 and/or zileuton was incubated with N-AS (2.5 μM, 2 h, Sigma-Aldrich, 01912), and were analyzed for the generation and roles of N-AS.
Samples were lysed in RIPA buffer (Cell signaling Technologies), then subjected to SDS-PAGE and transferred to a nitrocellulose membrane. […] We performed densitometric quantification using the ImageJ software (National Institutes of Health). […]

neuron = assay: immunofluorescence of ac-S565 and COX2 in primary cells; type: cell-based, C57BL/6 mice; details: Ab 10mM, replicates
Method: as §1, with “Aβ 1–42 (10 μM, 24 h, Invitrogen, 03112) was exposed to neurons and the cells were analyzed for the generation and roles of N-AS.” left out
Thioflavin S (Sigma-Aldrich) staining was carried out according to previously described procedures. […] The sections were analyzed with a laser-scanning confocal microscope (FV3000; Olympus) or with a BX51 microscope (Olympus). MetaMorph software (Molecular Devices) was used to quantification. Three-dimensional reconstruction of microglia was recorded and analyzed using IMARIS software (Bitplane)[11]. […]

Question: How did the “ac-S565 / total COX2, western blotting (Fig 3b)” value (astrocyte) turn out when “Ab: Aβ 1–42 (Invitrogen, 03112) used to induce an AD environment in cells” was run?
Answer: 0.1055 and 0.07523 and 0.08324 and 0.06718 and 0.09034 and 0.07923

Question: And the “ac-S565 with COX2, immunofluorescence quantification (Fig 3c)” value (neuron)?
Answer: 0.191 and 0.165 and 0.09731 and 0.2737 and 0.2437 and 0.2571
